% of control and % of inhibition data for 8 compounds are collected here from ChEMBL document CHEMBL5465560, “Selectivity Literature for EUbOPEN Chemogenomic Library” (2024).

Assay [1] concerns the target Cyclin-dependent kinase 11B (Homo sapiens) (UniProt P21127). In words: Selectivity interaction (Ambit KINOMEscan and KiNATiv profiling in Jurkat cells) EUB0000090b CDK11B. Format: cell-based. The conditions noted are these: at 1 µM.
Assay [2] deals with T1, Hormonally up-regulated neu tumor-associated kinase (Homo sapiens) (UniProt P57058).
T1 sequence (whole entry): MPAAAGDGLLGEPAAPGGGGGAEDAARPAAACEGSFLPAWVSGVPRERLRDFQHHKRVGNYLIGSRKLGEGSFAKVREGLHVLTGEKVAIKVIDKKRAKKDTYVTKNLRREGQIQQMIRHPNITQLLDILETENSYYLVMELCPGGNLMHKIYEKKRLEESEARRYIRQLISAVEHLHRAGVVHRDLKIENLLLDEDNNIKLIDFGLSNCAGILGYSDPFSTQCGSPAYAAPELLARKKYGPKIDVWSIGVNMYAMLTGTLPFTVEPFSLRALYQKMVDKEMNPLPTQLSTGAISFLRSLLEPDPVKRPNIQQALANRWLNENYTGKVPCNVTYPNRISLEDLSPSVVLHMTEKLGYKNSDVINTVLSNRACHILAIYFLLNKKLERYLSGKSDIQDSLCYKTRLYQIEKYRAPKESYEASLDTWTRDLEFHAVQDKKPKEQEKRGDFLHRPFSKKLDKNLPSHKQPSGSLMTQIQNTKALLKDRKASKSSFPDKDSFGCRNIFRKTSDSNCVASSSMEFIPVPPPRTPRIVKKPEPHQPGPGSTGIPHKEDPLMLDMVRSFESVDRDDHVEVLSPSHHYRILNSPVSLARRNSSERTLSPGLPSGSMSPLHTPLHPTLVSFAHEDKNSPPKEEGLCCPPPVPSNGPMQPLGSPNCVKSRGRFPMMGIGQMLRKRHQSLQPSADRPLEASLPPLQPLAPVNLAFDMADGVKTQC
In words: Selectivity interaction (Ambit KINOMEscan and KiNATiv profiling in Jurkat cells) EUB0000090b HUNK. It counts as cell-based. The conditions noted are these: at 1 µM.

In assay [3] the target is T2, Dual specificity tyrosine-phosphorylation-regulated kinase 4 (Homo sapiens) (UniProt Q9NR20).
T2 sequence (whole entry): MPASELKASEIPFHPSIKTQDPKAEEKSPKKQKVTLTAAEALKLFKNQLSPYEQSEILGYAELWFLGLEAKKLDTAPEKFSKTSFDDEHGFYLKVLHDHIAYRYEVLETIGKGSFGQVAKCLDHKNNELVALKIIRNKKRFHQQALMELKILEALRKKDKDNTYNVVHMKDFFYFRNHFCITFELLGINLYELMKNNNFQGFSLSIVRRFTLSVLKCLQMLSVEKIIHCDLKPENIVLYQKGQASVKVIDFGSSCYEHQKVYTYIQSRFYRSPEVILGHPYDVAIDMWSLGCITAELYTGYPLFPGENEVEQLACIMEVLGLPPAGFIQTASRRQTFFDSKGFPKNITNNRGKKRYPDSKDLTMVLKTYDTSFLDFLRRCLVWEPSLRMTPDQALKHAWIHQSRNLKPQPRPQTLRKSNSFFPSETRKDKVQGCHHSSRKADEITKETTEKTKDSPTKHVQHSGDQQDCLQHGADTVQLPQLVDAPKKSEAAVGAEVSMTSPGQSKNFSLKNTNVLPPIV
In words: Selectivity interaction (SelectScreen profiling (Invitrogen)) EUB0000607a DYRK4. The conditions noted are these: at 2 µM.

In assay [4] the target is Tyrosine-protein kinase Fgr (Homo sapiens) (UniProt P09769). The conditions noted are these: at 10 µM.
The target of assay [5] is T3, Serine/threonine-protein kinase ICK (Homo sapiens) (UniProt Q9UPZ9).
T3 sequence (whole entry): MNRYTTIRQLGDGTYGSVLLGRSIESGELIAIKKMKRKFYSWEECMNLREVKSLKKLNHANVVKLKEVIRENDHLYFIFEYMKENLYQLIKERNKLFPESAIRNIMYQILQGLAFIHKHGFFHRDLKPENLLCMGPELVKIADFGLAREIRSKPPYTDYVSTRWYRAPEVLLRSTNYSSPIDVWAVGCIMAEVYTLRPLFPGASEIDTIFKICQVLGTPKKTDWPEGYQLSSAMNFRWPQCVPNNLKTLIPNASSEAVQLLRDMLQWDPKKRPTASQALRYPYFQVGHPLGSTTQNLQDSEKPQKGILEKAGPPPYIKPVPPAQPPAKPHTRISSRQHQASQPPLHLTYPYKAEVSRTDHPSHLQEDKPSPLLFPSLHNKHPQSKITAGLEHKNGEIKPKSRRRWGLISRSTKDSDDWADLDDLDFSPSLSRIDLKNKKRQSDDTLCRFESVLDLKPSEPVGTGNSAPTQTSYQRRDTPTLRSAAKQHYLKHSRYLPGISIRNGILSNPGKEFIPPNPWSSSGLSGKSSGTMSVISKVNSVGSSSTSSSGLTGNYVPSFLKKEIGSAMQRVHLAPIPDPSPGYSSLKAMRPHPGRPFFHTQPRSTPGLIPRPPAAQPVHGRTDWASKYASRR
To be noted: at 10 µM.

Assay [6] has as its target Ribosomal protein S6 kinase alpha-6 (Homo sapiens, UniProt Q9UK32). In words: Selectivity interaction (KinomeScan (DiscoverX)) EUB0000666a RPS6KA6. To be noted: at 10 µM.
The target in assay [7] is Glycogen synthase kinase-3 alpha (Homo sapiens, UniProt P49840). In words: Selectivity interaction (KinomeScan (DiscoverX)) EUB0000655a GSK3A. The conditions noted are these: at 10 µM.
Assay [8] deals with Serine/threonine-protein kinase MARK1 (Homo sapiens) (UniProt Q9P0L2). In words: Selectivity interaction (KinomeScan (DiscoverX)) EUB0000655a MARK1. To be noted: at 10 µM.
For assay [9], the system named is Hepatocyte growth factor receptor (Homo sapiens), P08581 [M1250T]. In words: (§1) Selectivity interaction (KinomeScan (DiscoverX)) EUB0000655a MET. The conditions noted are these: at 10 µM.
For assay [10], the system named is Hepatocyte growth factor receptor (Homo sapiens), P08581 [Y1235D]. Described as §1. To be noted: at 10 µM.
Assay [11] concerns the target Hepatocyte growth factor receptor (Homo sapiens, UniProt P08581). Described as §1. To be noted: at 10 µM.
Assay [12] addresses Focal adhesion kinase 1 (Homo sapiens, UniProt Q05397). In words: Selectivity interaction (ActivX KiNativ screen (kinase selectivity in THP-1 cell lysates)) EUB0000639a PTK2. Format: subcellular. To be noted: lysate, at 1 µM.
In assay [13] the target is Tyrosine-protein kinase HCK (Homo sapiens) (UniProt P08631). In words: Selectivity interaction (ActivX KiNativ screen (kinase selectivity in THP-1 cell lysates)) EUB0000639a HCK. It counts as subcellular. The conditions noted are these: lysate, at 0.2 µM.
The target in assay [14] is Cyclin-dependent kinase 18 (Homo sapiens) (UniProt Q07002). In words: Selectivity interaction (KinomeScan (DiscoverX)) EUB0001049a CDK18. The conditions noted are these: at 1 µM.
Assay [15] addresses Cyclin-dependent kinase 15 (Homo sapiens) (UniProt Q96Q40). In words: Selectivity interaction (KinomeScan (DiscoverX)) EUB0000045b CDK15.
Assay [16] has as its target Serine/threonine-protein kinase Chk2 (Homo sapiens) (UniProt O96017). In words: Selectivity interaction (KinomeScan (DiscoverX)) EUB0000045b CHEK2.
Assay [17] deals with Angiopoietin-1 receptor (Homo sapiens) (UniProt Q02763). In words: Selectivity interaction (KinomeScan (DiscoverX)) EUB0000045b TEK.
Sequence of Angiopoietin-1 receptor (Homo sapiens) (Q02763 whole entry): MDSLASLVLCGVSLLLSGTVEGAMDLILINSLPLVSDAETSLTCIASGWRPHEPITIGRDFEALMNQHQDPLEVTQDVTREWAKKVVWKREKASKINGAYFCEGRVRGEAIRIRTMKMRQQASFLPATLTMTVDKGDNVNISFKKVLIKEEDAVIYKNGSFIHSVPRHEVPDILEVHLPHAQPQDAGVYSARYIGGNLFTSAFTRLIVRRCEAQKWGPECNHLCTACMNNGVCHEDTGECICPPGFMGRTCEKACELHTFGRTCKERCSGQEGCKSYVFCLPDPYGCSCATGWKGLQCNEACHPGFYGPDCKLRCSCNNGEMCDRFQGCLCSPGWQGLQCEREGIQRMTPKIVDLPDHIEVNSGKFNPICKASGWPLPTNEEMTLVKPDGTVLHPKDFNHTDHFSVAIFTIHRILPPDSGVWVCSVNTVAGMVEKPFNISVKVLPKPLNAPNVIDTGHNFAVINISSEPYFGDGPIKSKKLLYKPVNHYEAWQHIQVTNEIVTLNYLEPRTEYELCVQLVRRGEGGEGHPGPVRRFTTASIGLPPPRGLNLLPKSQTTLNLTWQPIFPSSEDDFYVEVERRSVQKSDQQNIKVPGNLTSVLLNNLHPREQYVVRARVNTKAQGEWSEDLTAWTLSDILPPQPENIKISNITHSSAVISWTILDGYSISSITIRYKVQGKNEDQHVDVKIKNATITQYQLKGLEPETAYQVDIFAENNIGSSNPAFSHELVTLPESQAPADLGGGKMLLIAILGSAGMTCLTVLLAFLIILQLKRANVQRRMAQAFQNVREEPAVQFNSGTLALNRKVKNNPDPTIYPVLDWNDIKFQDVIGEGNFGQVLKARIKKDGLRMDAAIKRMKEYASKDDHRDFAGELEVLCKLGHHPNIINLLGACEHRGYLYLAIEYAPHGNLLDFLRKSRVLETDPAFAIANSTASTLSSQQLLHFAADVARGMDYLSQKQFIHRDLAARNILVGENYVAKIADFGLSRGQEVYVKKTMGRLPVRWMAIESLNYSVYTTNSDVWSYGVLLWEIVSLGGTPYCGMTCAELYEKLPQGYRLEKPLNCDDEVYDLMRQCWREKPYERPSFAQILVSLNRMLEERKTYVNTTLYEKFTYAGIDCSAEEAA

Sequence of Cyclin-dependent kinase 15 (Homo sapiens) (Q96Q40 whole entry): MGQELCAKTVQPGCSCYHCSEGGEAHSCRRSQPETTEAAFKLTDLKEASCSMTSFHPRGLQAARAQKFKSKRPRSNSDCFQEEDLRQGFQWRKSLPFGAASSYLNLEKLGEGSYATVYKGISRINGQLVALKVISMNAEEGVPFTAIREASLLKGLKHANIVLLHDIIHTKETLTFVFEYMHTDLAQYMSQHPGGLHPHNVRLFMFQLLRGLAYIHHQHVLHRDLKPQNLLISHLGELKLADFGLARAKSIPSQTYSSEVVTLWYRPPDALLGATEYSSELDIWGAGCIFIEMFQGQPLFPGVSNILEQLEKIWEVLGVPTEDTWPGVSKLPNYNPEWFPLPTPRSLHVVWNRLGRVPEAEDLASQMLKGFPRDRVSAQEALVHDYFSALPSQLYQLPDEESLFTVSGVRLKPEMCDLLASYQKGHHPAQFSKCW
Sequence of Serine/threonine-protein kinase Chk2 (Homo sapiens) (O96017 whole entry): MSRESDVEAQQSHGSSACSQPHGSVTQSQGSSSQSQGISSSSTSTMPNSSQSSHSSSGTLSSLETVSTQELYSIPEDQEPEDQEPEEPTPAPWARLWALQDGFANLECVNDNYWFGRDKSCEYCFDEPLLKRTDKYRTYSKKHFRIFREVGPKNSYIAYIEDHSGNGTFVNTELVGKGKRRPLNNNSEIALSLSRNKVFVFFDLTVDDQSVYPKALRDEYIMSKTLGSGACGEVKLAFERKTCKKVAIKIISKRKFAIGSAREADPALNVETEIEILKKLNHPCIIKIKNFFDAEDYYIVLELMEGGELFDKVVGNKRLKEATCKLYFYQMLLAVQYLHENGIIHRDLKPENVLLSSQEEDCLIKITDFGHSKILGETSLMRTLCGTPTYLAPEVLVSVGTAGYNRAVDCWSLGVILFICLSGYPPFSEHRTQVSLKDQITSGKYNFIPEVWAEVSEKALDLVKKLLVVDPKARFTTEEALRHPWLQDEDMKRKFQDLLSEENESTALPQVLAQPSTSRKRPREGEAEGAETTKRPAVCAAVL
Sequence of Cyclin-dependent kinase 11B (Homo sapiens) (P21127 whole entry): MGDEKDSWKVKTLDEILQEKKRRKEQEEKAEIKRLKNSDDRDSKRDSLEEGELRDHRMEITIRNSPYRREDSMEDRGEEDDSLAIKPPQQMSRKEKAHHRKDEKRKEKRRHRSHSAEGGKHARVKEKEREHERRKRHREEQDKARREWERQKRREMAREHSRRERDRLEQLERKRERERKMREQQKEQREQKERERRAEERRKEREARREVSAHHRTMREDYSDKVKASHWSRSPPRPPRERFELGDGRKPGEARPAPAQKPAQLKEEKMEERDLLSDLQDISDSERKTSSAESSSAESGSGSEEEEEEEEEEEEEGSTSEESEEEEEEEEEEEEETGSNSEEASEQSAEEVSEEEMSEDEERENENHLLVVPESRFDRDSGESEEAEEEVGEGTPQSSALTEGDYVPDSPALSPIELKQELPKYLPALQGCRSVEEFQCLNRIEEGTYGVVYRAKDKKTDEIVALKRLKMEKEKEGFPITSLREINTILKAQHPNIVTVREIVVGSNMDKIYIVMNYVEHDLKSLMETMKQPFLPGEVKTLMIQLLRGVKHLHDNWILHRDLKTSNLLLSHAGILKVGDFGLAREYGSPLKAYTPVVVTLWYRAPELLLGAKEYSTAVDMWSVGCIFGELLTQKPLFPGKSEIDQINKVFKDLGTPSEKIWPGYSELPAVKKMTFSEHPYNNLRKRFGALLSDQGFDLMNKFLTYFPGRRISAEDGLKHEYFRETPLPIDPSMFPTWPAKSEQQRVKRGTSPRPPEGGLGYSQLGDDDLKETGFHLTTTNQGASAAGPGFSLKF
Sequence of Serine/threonine-protein kinase MARK1 (Homo sapiens) (Q9P0L2 whole entry, looked up): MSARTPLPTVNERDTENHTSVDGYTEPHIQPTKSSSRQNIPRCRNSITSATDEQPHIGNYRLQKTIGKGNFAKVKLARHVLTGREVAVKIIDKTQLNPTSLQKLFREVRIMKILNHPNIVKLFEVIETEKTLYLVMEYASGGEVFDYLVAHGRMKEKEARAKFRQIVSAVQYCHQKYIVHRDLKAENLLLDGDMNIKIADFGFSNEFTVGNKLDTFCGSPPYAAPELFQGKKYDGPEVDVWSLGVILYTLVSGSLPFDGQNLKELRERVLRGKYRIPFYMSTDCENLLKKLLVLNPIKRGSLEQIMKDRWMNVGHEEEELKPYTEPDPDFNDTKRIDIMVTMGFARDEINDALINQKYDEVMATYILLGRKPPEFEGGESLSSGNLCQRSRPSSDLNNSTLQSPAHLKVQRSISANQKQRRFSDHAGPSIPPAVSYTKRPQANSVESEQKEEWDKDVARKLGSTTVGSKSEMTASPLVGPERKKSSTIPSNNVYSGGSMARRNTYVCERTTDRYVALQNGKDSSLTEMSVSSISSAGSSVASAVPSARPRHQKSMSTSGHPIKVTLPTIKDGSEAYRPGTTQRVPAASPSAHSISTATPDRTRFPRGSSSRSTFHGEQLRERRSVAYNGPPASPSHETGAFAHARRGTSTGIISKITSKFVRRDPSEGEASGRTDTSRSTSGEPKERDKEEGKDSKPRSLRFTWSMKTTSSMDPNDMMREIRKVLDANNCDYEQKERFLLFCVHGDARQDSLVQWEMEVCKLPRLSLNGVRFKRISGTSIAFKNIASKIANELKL
Sequence of Tyrosine-protein kinase HCK (Homo sapiens) (P08631 2-526 limits assumed): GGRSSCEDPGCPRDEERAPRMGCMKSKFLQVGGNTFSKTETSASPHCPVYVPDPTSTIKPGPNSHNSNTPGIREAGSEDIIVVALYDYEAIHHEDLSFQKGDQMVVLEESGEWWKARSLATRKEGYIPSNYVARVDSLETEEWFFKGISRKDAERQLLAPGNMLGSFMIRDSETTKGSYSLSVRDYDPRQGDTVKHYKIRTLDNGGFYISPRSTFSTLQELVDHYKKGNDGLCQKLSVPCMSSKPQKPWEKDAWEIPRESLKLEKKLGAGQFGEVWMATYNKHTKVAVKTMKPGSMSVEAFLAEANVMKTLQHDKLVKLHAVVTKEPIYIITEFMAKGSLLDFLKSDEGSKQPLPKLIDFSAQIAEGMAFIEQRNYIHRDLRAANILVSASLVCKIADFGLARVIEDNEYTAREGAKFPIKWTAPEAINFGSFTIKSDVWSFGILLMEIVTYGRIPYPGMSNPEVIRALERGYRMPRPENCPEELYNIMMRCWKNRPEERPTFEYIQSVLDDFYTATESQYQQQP
Sequence of Glycogen synthase kinase-3 alpha (P49840 2-483 limits assumed): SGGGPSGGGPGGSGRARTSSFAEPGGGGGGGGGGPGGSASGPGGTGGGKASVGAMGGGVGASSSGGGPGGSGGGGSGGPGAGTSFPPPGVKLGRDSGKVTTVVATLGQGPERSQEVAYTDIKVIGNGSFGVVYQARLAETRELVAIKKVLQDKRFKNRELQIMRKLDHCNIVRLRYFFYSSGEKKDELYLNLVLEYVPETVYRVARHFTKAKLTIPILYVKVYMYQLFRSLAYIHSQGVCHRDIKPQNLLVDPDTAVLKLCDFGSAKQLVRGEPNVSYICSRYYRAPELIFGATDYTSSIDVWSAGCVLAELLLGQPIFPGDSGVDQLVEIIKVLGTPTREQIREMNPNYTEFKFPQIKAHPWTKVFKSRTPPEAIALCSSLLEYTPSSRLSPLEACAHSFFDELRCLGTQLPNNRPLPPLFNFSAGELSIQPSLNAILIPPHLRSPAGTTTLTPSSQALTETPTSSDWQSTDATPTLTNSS

Consider `CN(C)C/C=C/C(=O)Nc1ccc(C(=O)N2CCCC(Nc3ncc(Cl)c(-c4c[nH]c5ccccc45)n3)C2)cc1` (stereo not given), for which the % of control in [1] came to 100%; in [2], 80%.
For `CNC(=O)Nc1ccc(-c2nc(N3CC4CCC(C3)O4)c3cnn(C4CCC5(CC4)OCCO5)c3n2)cc1`, the % of inhibition in [3] is 4%.
On to `Cc1cc([C@@H](C)Nc2ccccc2C(=O)O)c2nc(N3CCOCC3)cc(=O)n2c1` [AZD-6482], for which the % of control in assay [4] was 95%; in assay [5], 100%.
Regarding `O=C(NOC[C@H](O)CO)c1ccc(F)c(F)c1Nc1ccc(I)cc1F`, the % of control in assay [6] stood at 80%.
In the case of `CN(C)CCOc1ccc(-c2nc(-c3ccncc3)c(-c3ccc4c(c3)CC/C4=N\O)[nH]2)cc1`, the % of control was 100% in [7]; 100% in assay [8]; 64% in assay [9]; 64% in assay [10]; 50% in [11].
For the compound `CC[C@@H]1[C@H](F)C(=O)N[C@@H]1COc1nccc2cc(C(N)=O)c(OC)cc12` [ZIMLOVISERTIB], the % of inhibition was -38.6% in assay [12] and -32.6% in [13].
Consider `COc1cc(Nc2nc(C)cc(-c3cnn4nc(OC)ccc34)n2)cc(C(F)(F)F)c1`, for which, in [14], the % of control turned out to be 87%.
As for `C=CC(=O)Nc1cc(-n2c(=O)ccc3cnc4ccc(-c5ccc(NS(C)(=O)=O)cc5)cc4c32)ccc1C`, the % of control in assay [15] (at 1 µM) turned out to be 100%; in [15] (at 10 µM), 72%; in [16] (at 1 µM), 100%; in [16] (at 10 µM), 100%; in assay [17] (at 1 µM), 89%; in assay [17] (at 10 µM), 99%.
